What was measured:
Settings in all cases: exposure: 5-72 hpf
[1] = tested on: Danio rerio embryo (fli1:egfp); assay: arterial (dorsal aorta) circulation score at 72 hpf (normalized DA-Max (arbitrary units)); higher = more circulation
Protocol: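 fli1:egfp zebrafish embryos exposed 5-72 hpf to chemical (0.05-50 µM, 0.1% DMSO); arterial circulation at 72 hpf quantified from stream acquisitions of the dorsal aorta by FFT-based analysis (DA-Max, normalized dorsal aorta signal); only concentrations passing survival/body-length criteria analyzed.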

[2] = tested on: Danio rerio embryo (fli1:egfp); assay: heart rate at 72 hpf (beats per minute); higher = faster heart rate
Protocol: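 fli1:egfp zebrafish embryos exposed 5-72 hpf to chemical (0.05-50 µM, 0.1% DMSO) in 384-well plates; heart rate at 72 hpf quantified from stream acquisitions by semi-automated MetaXpress journal (peak counting); only embryos in concentrations passing survival/body-length criteria analyzed.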

[3] = tested on: Danio rerio embryo (fli1:egfp); assay: intersegmental vessel area normalized to body length at 72 hpf (ISV area / body length (normalized units)); higher = more vessel area
Protocol: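 fli1:egfp zebrafish embryos exposed 5-72 hpf to chemical (0.05-50 µM, 0.1% DMSO); intersegmental vessel (ISV) eGFP area quantified by MetaXpress journal at 72 hpf and normalized to body length.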

[4] = tested on: Danio rerio embryo (fli1:egfp); assay: pericardial area at 72 hpf (image area units (not stated)); higher = larger pericardial area (edema)
Protocol: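 fli1:egfp zebrafish embryos exposed 5-72 hpf to chemical (0.05-50 µM, 0.1% DMSO); pericardial area at 72 hpf measured by semi-automated MetaXpress journal (increase indicates edema).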

[5] = tested on: Danio rerio embryo (fli1:egfp); assay: body length at 72 hpf (µm); higher = longer body (less growth inhibition)
Protocol: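 Transgenic fli1:egfp zebrafish embryos (one per well, 384-well plate) exposed statically from 5 to 72 hpf at 28 °C to chemical (0.05-50 µM, 0.1% DMSO); at 72 hpf anesthetized and imaged on ImageXpress; body length of live, hatched, correctly oriented embryos measured by automated MetaXpress journal. Dead/unhatched/misoriented embryos have no value.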

CCOC(=O)C(C)OC(=O)c1cc(Oc2ccc(C(F)(F)F)cc2Cl)ccc1[N+](=O)[O-] (stereo not drawn) [Lactofen]
Settings | arterial, [1] | body length at 72 hpf, [5] | heart rate at 72 hpf, [2] | intersegmental vessel area normalized, [3] | pericardial area at 72 hpf, [4]
0.05 µM | 8.21 | 3000 | 189 | 84.8 | 13400
0.098 µM | 7.39 | 3000 | 187 | 87.9 | 17300
0.195 µM | 8.26 | 2990 | 191 | 81.5 | 15800
0.39 µM | 8.42 | 2940 | 188 | 83.3 | 15800
0.78 µM | 5.92 | 2950 | 191 | 82.4 | 19300
1.56 µM | 6.43 | 2980 | 193 | 85.2 | 19800
3.125 µM | 5.46 | 2960 | 190 | 88 | 21500
6.25 µM | 4.85 | 2910 | 188 | 92.9 | 21200
12.5 µM | 4.13 | 2910 | 187 | 99.7 | 23900

CC1(C)C(C(=O)OC(C#N)c2cccc(Oc3ccccc3)c2)C1(C)C (stereo not drawn) [Fenpropathrin]
Settings | arterial, [1] | body length at 72 hpf, [5] | heart rate at 72 hpf, [2] | intersegmental vessel area normalized, [3] | pericardial area at 72 hpf, [4]
0.05 µM | 18.5 | 2970 | 183 | 83.1 | 14600
0.098 µM | 13.8 | 2950 | 197 | 80.8 | 13400
0.195 µM | 11.2 | 2970 | 191 | 73.2 | 14500
0.39 µM | 10.7 | 2940 | 192 | 83.8 | 14400
0.78 µM | 12.6 | 2780 | 192 | 85.4 | 13200
1.56 µM | 20.9 | 2720 | 188 | 90.6 | 13400
3.125 µM | 21.2 | 2710 | 186 | 82.2 | 13600
6.25 µM | – | 2640 | – | – | –
12.5 µM | – | 2590 | – | – | –

CC1(C)C(C=C(Cl)Cl)C1C(=O)OC(C#N)c1ccc(F)c(Oc2ccccc2)c1 (stereo not drawn) [Cyfluthrin]
Settings | arterial, [1] | body length at 72 hpf, [5] | heart rate at 72 hpf, [2] | intersegmental vessel area normalized, [3] | pericardial area at 72 hpf, [4]
0.05 µM | 14.9 | 3010 | 185 | 80.1 | 16100
0.098 µM | 14.7 | 3040 | 187 | 71.9 | 14000
0.195 µM | 16.3 | 3030 | 188 | 80.3 | 12900
0.39 µM | 12.4 | 3070 | 193 | 83.3 | 13300
0.78 µM | 9.66 | 3020 | 202 | 71.9 | 14900
1.56 µM | 13 | 2900 | 198 | 78.4 | 16800
3.125 µM | 14.7 | 2790 | 190 | 92.3 | 16900
6.25 µM | – | 2620 | – | – | –

C#CCN1C(=O)COc2cc(F)c(N3C(=O)C4=C(CCCC4)C3=O)cc21 [Flumioxazin]
Settings | arterial, [1] | body length at 72 hpf, [5] | heart rate at 72 hpf, [2] | intersegmental vessel area normalized, [3] | pericardial area at 72 hpf, [4]
0.05 µM | 6.76 | 3020 | 175 | 73.7 | 17000
0.098 µM | 5.49 | 2970 | 169 | 74.8 | 17800
0.195 µM | 5.79 | 3020 | 160 | 82.8 | 18200
0.39 µM | 4.85 | 2920 | 155 | 68.9 | 19000
0.78 µM | 5.18 | 3030 | 156 | 68.8 | 23000
1.56 µM | 4.72 | 2960 | 164 | 74.8 | 18100
3.125 µM | 4.39 | 3000 | 182 | 74 | 18700
6.25 µM | 4.22 | 3000 | 169 | 69.6 | 19200
12.5 µM | 4.91 | 2990 | 182 | 75.9 | 19300
25 µM | 4.04 | 2920 | 166 | 86.4 | 17700
50 µM | 6.16 | 2920 | 166 | 79 | 21100

CCOC(=O)COc1cc(-c2nn(C)c(OC(F)F)c2Cl)c(F)cc1Cl [Pyraflufen-ethyl]
Settings | arterial, [1] | body length at 72 hpf, [5] | heart rate at 72 hpf, [2] | intersegmental vessel area normalized, [3] | pericardial area at 72 hpf, [4]
0.05 µM | 10.9 | 3030 | 171 | 83.6 | 15700
0.098 µM | 8.57 | 3020 | 174 | 92.3 | 15400
0.195 µM | 10.5 | 3020 | 174 | 84.6 | 15300
0.39 µM | 9.67 | 3040 | 167 | 86.7 | 17100
0.78 µM | 10.2 | 2950 | 169 | 81.6 | 16800
1.56 µM | 7.3 | 2980 | 169 | 85.2 | 20600
3.125 µM | 4.92 | 2960 | 160 | 86.2 | 20000
6.25 µM | 3.84 | 2890 | 163 | 86 | 25300
25 µM | 3.2 | 2790 | 148 | 96.9 | 25400

COC(=O)N(C(=O)N1CO[C@@]2(C(=O)OC)Cc3cc(Cl)ccc3C2=N1)c1ccc(OC(F)(F)F)cc1 [Indoxacarb]
Settings | arterial, [1] | body length at 72 hpf, [5] | heart rate at 72 hpf, [2] | intersegmental vessel area normalized, [3] | pericardial area at 72 hpf, [4]
0.05 µM | 9.56 | 2980 | 169 | 81.5 | 14200
0.098 µM | 10.3 | 3010 | 171 | 81.7 | 13400
0.195 µM | 10.5 | 2970 | 176 | 85.7 | 15600
0.39 µM | 8.96 | 2950 | 183 | 80.7 | 13200
0.78 µM | 8.19 | 2990 | 185 | 80.1 | 14100
1.56 µM | 10.8 | 2960 | 181 | 85.1 | 12300
3.125 µM | 9.26 | 3010 | 194 | 83.8 | 12700
6.25 µM | 10.5 | 3020 | 188 | 87.7 | 13000
12.5 µM | 14.1 | 2900 | 181 | 70.6 | 14200

CO/N=C(/C1=NOCCO1)c1ccccc1Oc1ncnc(Oc2ccccc2Cl)c1F [Fluoxastrobin]
Settings | arterial, [1] | body length at 72 hpf, [5] | heart rate at 72 hpf, [2] | intersegmental vessel area normalized, [3] | pericardial area at 72 hpf, [4]
0.0061 µM | 13.7 | 2970 | 182 | 70.3 | 12700
0.0122 µM | 15 | 2930 | 189 | 71.6 | 14000
0.0244 µM | 11.9 | 2900 | 188 | 76 | 13500
0.05 µM | 15.2 | 2970 | 194 | 79.4 | 14300
0.098 µM | 12.6 | 2980 | 198 | 82.8 | 14900
0.195 µM | 16.2 | 2990 | 198 | 75.3 | 14200
0.39 µM | 13.1 | 2970 | 194 | 77.9 | 15000
0.78 µM | 13.9 | 2940 | 191 | 67.2 | 13900
1.56 µM | 12.1 | 2910 | 177 | 80.3 | 17100
3.125 µM | 6.76 | 3010 | 161 | 64.8 | 28800

N#Cc1c(Cl)c(Cl)c(Cl)c(C#N)c1Cl [Chlorothalonil]
Settings | arterial, [1] | body length at 72 hpf, [5] | heart rate at 72 hpf, [2] | intersegmental vessel area normalized, [3] | pericardial area at 72 hpf, [4]
0.05 µM | 11.6 | 2960 | 138 | 70.8 | 17600
0.098 µM | 10.8 | 2990 | 140 | 78.4 | 24100
0.195 µM | 10.3 | 2940 | 154 | 75.7 | 23900
0.39 µM | 12.3 | 2880 | 153 | 80.7 | 22000

CN1CSC(=S)N(C)C1 [Dazomet]
0.05 µM
Settings | arterial | body length at 72 hpf | heart rate at 72 hpf | intersegmental vessel area normalized | pericardial area at 72 hpf
[1] | 14.4 | – | – | – | –
[2] | – | – | 168 | – | –
[3] | – | – | – | 72.7 | –
[4] | – | – | – | – | 15600
[5] | – | 2860 | – | – | –

CN(C)C(=S)SSC(=S)N(C)C [Thiram]
Settings | arterial, [1] | body length at 72 hpf, [5] | heart rate at 72 hpf, [2] | intersegmental vessel area normalized, [3] | pericardial area at 72 hpf, [4]
95 pM | 9.22 | 3070 | 180 | 95.8 | 11600
0.00019 µM | 11.1 | 3010 | 187 | 101 | 11600
0.00038 µM | 9.48 | 3060 | 179 | 97.6 | 12500
0.00076 µM | 10.3 | 3020 | 192 | 98.6 | 11500
0.0015 µM | 11 | 3050 | 191 | 95.6 | 11200
0.003 µM | 9.4 | 3070 | 196 | 99.4 | 12900
0.0061 µM | 8.74 | 3050 | 196 | 110 | 14600
0.0122 µM | 9.58 | 3070 | 189 | 99.1 | 12000
0.0244 µM | 11.3 | 3080 | 179 | 97.9 | 12400

CCCCSP(=O)(SCCCC)SCCCC [Tribufos]
Settings | arterial, [1] | body length at 72 hpf, [5] | heart rate at 72 hpf, [2] | intersegmental vessel area normalized, [3] | pericardial area at 72 hpf, [4]
0.05 µM | 11.1 | 2900 | 166 | 79.6 | 13400
0.098 µM | 14.1 | 2950 | 161 | 84.8 | 13600
0.195 µM | 14.9 | 2990 | 182 | 92.3 | 14700
0.39 µM | 15.4 | 2940 | 169 | 83.8 | 13700
0.78 µM | 14.8 | 2940 | 167 | 86 | 14600
1.56 µM | 16.1 | 2910 | 164 | 87.5 | 14200
3.125 µM | 14.5 | 2980 | 172 | 81.8 | 13300
6.25 µM | 15 | 2970 | 176 | 94.4 | 15200
12.5 µM | 13.9 | 2870 | 166 | 81.3 | 13400

From the supplement of paper PMC4121296
